Source: patent US6436874B1, “Synergistic herbicidal agents based on leaf herbicides containing phosphorus, imidazolinones and hormone weed killers” (priority 1998, dated 2002)
Where a name gives a salt, the structure may show the parent alone. Read-outs that look alike come from different tables or passages of the source.

Columns and labels:
Type in all cases: in vivo
[1] = tested on: Hedyotis verticillata; assay: Field trial, herbicidal activity against Hedyotis verticillata in oil palm plantation; conditions: Scleromitrion verticillatum; for inhibition at 25 g/ha: read-out: Herbicidal activity (%), w. after appl., No. 11, dose 25 g of AS/ha; for inhibition at 50 g/ha: read-out: Herbicidal activity (%), w. after appl., No. 12, dose 50 g of AS/ha; for inhibition at 80 g/ha: read-out: Herbicidal activity (%), w. after appl., No. 13, dose 80 g of AS/ha
Protocol: (§1) In an oil palm plantation, the economically important tropical weed Hedyotis verticillata was grown on plots of the dimensions 2×5 m under natural outdoor conditions and treated with the herbicides A1.2, B1 and C1 or their mixtures in a tank mix under standard conditions using a plot sprayer, at a water application rate of 450 liters of water per hectare (over-the-top application to the weeds; plant density initially more than 95% ground coverage). At intervals of 1, 2, 3, 4, 5, 6, 7 and 8 weeks after the application, the herbicidal efficacy of the active compounds or active compound mixtures was evaluated visually on the basis of the treated plots, in comparison with untreated control plots. The damage to and development of all above-ground parts of the plants were recorded. Evaluation was carried out using a percentage scale (100% effect=all plants killed; 50% effect=50% of the plants and the green parts of the plants killed; 0% effect=no noticeable effect=like control plot). The evaluation values of in each case 4 plots were averaged.

[2] = tested on: Asystasia intrusa; assay: Field trial, herbicidal activity against Asystasia intrusa in rubber tree plantation; conditions: Asystasia intrusa, read-out: Activity (%), w. after appl., No. 2, dose 60 g of AS/ha
Protocol: as §1
In a rubber tree plantation, plots with the tropical weed Asystasia intrusa were grown under natural outdoor conditions (dimensions of the plots 2 x 5 m). The herbicides or their mixtures in a tank mix were applied under standard conditions (over-the-top application using a plot sprayer, water application rate 450 l/ha). In intervals of 4, 7, 13, 17 and 21 weeks after the application, the herbicidal efficacy of the active compounds or their mixtures was evaluated visually on the basis of the treated plots, in comparison with untreated control plots. The damage to and the development of all above-ground parts of the plants were recorded. Evaluation was carried out as described in Example 1.

[3] = tested on: Axonopus compressus; assay: Field trial, herbicidal activity against Axonopus compressus in rubber tree plantation; conditions: Axonopus compressus, read-out: Activity (%), w. after appl., No. 2, dose 60 g of AS/ha
Protocol: as §1
In a rubber tree plantation, plots with the tropical weed Axonopus compressus were grown under natural outdoor conditions (plot dimensions 2×5 m). The herbicides or their mixtures in a tank mix were applied under standard conditions using a plot spayer at a water application rate of 450 liters of water per hectare (over-the-top application). At intervals of 4, 7, 13, 17 and 21 weeks after the application, the herbicidal efficacy of the active compounds or active compound mixtures was evaluated visually on the basis of the treated plots, in comparison with untreated control plots. The damage to and development of all above-ground parts of the plants were recorded. Evaluation was carried out as described in Example 1.

[4] = tested on: Brachiaria mutica, Digitaria horizontalis, Panicum maximum, Echinochloa colona and Ageratum conyzoides; assay: Field trial, herbicidal activity against weeds in sugar cane plantation
Protocol: as §1, with “Evaluation was carried out using a percentage scale (100% effect=all plants killed; 50% effect=50% of the plants and the green parts of the plants killed; 0% effect=no noticeable effect=like control plot). The evaluation values of in each case 4 plots were averaged.” left out
In a sugar cane plantation, plots with the weeds Brachiaria mutica, Digitaria horizontalis, Panicum maximum, Echinochloa colona and Ageratum conyzoides were grown under natural outdoor conditions (dimensions of the plots 2×5 m). […] Four weeks after the application, the herbicidal efficacy of the active compounds or their mixtures was evaluated visually on the basis of the treated plots, in comparison with untreated control plots. The damage to and development of all above-ground parts of the plants were recorded. […]

SMILES: CP(=O)(O)CCC(N)C(=O)O (stereo not drawn) [A1.2, Glufosinate-monoammonium salt]
- inhibition at 25 g/ha ([1]; 1 w. after appl.): 35%
- inhibition at 25 g/ha ([1]; 2 w. after appl.): 28%
- inhibition at 25 g/ha ([1]; 3 w. after appl.): 23%
- inhibition at 25 g/ha ([1]; 4 w. after appl.): 20%
- inhibition at 25 g/ha ([1]; 5 w. after appl.): 10%
- inhibition at 25 g/ha ([1]; 6 w. after appl.): 10%
- inhibition at 25 g/ha ([1]; 7 w. after appl.): 10%
- inhibition at 25 g/ha ([1]; 8 w. after appl.): 0%
- inhibition at 50 g/ha ([1]; 1 w. after appl.): 35%
- inhibition at 50 g/ha ([1]; 2 w. after appl.): 25%
- inhibition at 50 g/ha ([1]; 3 w. after appl.): 20%
- inhibition at 50 g/ha ([1]; 4 w. after appl.): 20%
- inhibition at 50 g/ha ([1]; 5 w. after appl.): 10%
- inhibition at 50 g/ha ([1]; 6 w. after appl.): 10%
- inhibition at 50 g/ha ([1]; 7 w. after appl.): 10%
- inhibition at 50 g/ha ([1]; 8 w. after appl.): 0%
- inhibition at 80 g/ha ([1]; 1 w. after appl.): 58%
- inhibition at 80 g/ha ([1]; 2 w. after appl.): 45%
- inhibition at 80 g/ha ([1]; 3 w. after appl.): 40%
- inhibition at 80 g/ha ([1]; 4 w. after appl.): 40%
- inhibition at 80 g/ha ([1]; 5 w. after appl.): 40%
- inhibition at 80 g/ha ([1]; 6 w. after appl.): 30%
- inhibition at 80 g/ha ([1]; 7 w. after appl.): 28%
- inhibition at 80 g/ha ([1]; 8 w. after appl.): 8%
- inhibition at 60 g/ha ([2]; 4 w. after appl.): 23%
- inhibition at 60 g/ha ([2]; 7 w. after appl.): 5%
- inhibition at 60 g/ha ([2]; 13 w. after appl.): 0%
- inhibition at 60 g/ha ([2]; 17 w. after appl.): 0%
- inhibition at 60 g/ha ([2]; 21 w. after appl.): 0%
- inhibition at 60 g/ha ([3]; 4 w. after appl.): 17%
- inhibition at 60 g/ha ([3]; 7 w. after appl.): 10%
- inhibition at 60 g/ha ([3]; 13 w. after appl.): 0%
- inhibition at 60 g/ha ([3]; 17 w. after appl.): 0%
- inhibition at 60 g/ha ([3]; 21 w. after appl.): 0%
- inhibition at 300 g/ha ([4]; 672 h, read-out: Herbicidal activity (%)): 72%
- Weed coverage (%) ([4]; No. 2, dose 300 g of AS/ha, percent ground coverage, control plot has more than 95% weed coverage): 27%
